Assays:
Assay in all cases: Nanosyn kinase profiling
Format in all cases: biochemical
Conditions in all cases: read-out: Percentage inhibition; for inhibition at 0.1 µM: 0.1 µM inhibitor; for inhibition at 1 µM: 1 µM inhibitor
[1] = target: T1, PRKD1 (Homo sapiens, UniProt Q15139)
T1 construct: purchased Nanosyn (enzymatic panel); SGC in-house recombinant human kinases (DSF panel); Invitrogen (ALK1-6)
T1 sequence (Q15139 1-912): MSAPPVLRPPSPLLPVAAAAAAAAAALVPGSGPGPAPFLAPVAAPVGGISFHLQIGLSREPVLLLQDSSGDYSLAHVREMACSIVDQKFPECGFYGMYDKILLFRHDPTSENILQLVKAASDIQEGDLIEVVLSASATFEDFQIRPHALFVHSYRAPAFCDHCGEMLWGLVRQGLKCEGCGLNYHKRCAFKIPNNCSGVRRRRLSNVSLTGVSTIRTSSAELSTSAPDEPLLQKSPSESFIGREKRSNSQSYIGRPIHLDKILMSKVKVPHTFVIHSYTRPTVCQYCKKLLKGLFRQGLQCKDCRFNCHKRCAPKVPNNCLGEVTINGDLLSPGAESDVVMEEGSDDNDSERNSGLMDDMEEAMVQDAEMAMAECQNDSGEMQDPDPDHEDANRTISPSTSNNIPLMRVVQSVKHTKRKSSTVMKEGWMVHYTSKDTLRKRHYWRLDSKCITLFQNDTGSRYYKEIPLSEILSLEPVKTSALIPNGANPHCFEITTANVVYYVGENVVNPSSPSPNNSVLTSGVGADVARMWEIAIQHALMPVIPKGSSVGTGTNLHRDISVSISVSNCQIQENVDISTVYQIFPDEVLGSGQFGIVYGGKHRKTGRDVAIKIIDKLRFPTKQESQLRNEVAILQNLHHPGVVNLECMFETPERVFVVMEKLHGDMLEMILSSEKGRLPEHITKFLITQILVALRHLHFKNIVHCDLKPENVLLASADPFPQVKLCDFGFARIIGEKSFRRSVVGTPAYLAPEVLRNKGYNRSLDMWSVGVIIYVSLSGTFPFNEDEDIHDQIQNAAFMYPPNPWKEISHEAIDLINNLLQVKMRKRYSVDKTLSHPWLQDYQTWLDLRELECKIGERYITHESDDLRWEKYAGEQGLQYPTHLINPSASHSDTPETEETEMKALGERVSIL
Method in brief: (§1)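 Percent inhibition of each kinase was measured with the inhibitor at 0.1 µM and at 1 µM, as part of a 200-kinase human selectivity panel.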

[2] = target: T2, CDK2/cycA (Homo sapiens, UniProt P24941)
T2 construct: purchased Nanosyn (enzymatic panel); SGC in-house recombinant human kinases (DSF panel); Invitrogen (ALK1-6)
Method in brief: as §1

[3] = target: T3, YES (Homo sapiens, UniProt P07947)
T3 construct: purchased Nanosyn (enzymatic panel); SGC in-house recombinant human kinases (DSF panel); Invitrogen (ALK1-6)
T3 sequence (P07947 whole entry): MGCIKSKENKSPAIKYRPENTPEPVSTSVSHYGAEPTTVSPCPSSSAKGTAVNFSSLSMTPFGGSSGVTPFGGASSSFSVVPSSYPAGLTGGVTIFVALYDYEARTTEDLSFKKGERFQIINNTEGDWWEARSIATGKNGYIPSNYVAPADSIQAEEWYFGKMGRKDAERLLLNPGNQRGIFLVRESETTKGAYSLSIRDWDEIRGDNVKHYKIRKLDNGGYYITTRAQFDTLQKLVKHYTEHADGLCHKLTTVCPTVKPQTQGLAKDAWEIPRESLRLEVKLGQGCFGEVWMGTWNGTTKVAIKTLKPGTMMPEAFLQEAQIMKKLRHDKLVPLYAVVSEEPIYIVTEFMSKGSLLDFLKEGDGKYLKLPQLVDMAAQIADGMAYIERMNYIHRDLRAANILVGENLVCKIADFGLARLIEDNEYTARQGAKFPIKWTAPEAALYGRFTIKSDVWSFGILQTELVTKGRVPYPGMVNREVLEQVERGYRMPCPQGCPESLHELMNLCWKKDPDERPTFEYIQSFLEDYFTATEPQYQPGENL
Method in brief: as §1

[4] = target: T4, PRKX (Homo sapiens, UniProt P51817)
T4 construct: purchased Nanosyn (enzymatic panel); SGC in-house recombinant human kinases (DSF panel); Invitrogen (ALK1-6)
T4 sequence (P51817 1-358): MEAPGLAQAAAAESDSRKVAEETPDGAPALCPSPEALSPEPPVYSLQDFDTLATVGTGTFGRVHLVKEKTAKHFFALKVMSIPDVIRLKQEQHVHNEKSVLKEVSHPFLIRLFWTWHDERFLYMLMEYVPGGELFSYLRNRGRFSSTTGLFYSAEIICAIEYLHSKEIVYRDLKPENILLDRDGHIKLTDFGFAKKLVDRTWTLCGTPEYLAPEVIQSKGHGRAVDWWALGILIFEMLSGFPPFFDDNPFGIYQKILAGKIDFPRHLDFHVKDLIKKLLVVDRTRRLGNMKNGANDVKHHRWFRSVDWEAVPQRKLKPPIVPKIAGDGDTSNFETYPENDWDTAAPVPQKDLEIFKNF
Method in brief: as §1

[5] = target: T5, FGFR3 (Homo sapiens, UniProt P22607)
T5 construct: purchased Nanosyn (enzymatic panel); SGC in-house recombinant human kinases (DSF panel); Invitrogen (ALK1-6)
T5 sequence (P22607 23-806): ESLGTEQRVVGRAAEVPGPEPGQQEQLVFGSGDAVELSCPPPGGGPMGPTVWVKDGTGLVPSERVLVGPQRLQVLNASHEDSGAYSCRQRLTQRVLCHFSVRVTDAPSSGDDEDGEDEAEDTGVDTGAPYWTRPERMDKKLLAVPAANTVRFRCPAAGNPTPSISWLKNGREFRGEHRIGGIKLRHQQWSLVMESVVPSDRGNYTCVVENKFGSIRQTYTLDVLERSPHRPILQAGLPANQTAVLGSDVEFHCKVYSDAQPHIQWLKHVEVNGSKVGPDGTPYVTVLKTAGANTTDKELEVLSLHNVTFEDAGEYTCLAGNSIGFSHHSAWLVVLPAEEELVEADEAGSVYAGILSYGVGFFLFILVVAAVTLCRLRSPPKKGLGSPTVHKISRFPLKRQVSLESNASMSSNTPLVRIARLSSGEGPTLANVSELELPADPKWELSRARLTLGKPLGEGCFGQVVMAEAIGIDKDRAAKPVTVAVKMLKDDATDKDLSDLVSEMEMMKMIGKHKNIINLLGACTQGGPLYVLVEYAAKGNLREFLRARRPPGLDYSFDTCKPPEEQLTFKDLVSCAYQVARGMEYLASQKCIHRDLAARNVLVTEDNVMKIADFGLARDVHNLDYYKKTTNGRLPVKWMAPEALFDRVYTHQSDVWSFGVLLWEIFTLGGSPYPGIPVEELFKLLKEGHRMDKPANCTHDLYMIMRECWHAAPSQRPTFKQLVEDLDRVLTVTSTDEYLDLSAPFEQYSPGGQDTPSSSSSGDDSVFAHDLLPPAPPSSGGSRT
Method in brief: as §1

[6] = target: T6, AKT1 (Homo sapiens, UniProt P31749)
T6 construct: purchased Nanosyn (enzymatic panel); SGC in-house recombinant human kinases (DSF panel); Invitrogen (ALK1-6)
T6 sequence (P31749 whole entry): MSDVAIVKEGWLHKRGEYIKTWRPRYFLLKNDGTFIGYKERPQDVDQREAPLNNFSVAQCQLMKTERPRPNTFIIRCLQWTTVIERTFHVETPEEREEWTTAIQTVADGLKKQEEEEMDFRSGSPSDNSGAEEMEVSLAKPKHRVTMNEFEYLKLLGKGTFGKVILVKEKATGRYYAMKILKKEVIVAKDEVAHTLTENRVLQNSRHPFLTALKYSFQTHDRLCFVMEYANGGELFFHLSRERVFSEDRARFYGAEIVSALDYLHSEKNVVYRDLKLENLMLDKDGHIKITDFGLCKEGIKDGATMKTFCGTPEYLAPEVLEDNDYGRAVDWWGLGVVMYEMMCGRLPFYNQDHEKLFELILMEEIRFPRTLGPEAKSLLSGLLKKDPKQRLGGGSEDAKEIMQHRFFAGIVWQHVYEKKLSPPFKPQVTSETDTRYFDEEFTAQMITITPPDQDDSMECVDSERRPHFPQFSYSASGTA
Method in brief: as §1

[7] = target: T7, LYNB (Homo sapiens, UniProt P07948)
T7 construct: purchased Nanosyn (enzymatic panel); SGC in-house recombinant human kinases (DSF panel); Invitrogen (ALK1-6)
T7 sequence (P07948 1-491 isoform P07948-2): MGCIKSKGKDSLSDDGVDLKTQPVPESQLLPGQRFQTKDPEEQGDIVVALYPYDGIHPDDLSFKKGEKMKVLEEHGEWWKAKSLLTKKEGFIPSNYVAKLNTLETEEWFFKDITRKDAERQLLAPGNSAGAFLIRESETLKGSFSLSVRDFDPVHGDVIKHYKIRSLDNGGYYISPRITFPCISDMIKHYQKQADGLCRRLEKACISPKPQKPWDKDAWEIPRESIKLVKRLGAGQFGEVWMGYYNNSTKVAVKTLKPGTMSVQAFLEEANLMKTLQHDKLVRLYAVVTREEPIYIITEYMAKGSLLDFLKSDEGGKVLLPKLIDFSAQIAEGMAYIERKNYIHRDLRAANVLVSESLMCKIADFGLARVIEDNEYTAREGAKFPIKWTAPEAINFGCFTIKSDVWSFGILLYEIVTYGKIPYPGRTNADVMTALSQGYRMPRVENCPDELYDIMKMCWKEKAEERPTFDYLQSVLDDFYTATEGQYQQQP
Method in brief: as §1

[8] = target: T8, ROCK2 (Homo sapiens, UniProt O75116)
T8 construct: purchased Nanosyn (enzymatic panel); SGC in-house recombinant human kinases (DSF panel); Invitrogen (ALK1-6)
T8 sequence (O75116 whole entry): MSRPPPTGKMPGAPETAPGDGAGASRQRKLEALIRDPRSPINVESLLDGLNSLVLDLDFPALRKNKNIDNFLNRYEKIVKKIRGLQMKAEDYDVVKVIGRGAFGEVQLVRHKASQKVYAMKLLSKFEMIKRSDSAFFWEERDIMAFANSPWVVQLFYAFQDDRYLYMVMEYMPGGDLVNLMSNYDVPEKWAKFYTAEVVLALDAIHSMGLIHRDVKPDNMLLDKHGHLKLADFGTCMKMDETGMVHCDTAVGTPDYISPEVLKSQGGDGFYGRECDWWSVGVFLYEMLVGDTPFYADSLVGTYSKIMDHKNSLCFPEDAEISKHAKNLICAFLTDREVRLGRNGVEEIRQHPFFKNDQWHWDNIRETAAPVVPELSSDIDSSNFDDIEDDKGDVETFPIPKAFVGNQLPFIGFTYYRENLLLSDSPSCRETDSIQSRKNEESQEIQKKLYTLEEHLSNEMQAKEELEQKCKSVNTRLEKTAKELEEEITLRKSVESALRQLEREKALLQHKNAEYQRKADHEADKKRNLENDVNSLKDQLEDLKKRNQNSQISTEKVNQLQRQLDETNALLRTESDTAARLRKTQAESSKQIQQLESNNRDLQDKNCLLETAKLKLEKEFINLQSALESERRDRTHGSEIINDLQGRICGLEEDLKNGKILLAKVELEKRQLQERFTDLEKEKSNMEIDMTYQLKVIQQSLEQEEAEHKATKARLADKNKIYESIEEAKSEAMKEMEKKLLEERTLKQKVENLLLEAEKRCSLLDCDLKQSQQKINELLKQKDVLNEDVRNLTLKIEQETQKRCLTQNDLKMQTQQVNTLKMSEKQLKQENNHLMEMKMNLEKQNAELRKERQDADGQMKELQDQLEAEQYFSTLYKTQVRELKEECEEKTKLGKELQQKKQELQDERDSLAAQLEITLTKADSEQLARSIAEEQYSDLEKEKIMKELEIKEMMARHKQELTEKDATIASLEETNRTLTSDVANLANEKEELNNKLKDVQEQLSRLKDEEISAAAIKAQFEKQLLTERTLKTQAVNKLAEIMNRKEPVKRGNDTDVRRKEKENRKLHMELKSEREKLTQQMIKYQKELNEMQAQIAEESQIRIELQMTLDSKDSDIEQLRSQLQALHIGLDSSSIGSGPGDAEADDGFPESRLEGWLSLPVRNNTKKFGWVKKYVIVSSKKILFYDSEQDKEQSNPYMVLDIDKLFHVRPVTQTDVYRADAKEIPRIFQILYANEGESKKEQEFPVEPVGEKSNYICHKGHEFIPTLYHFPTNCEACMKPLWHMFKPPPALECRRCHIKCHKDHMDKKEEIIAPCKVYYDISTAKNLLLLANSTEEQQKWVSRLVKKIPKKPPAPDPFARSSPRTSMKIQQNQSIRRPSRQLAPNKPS
Method in brief: as §1

[9] = target: T9, PDK1 (Homo sapiens, UniProt O15530)
T9 construct: purchased Nanosyn (enzymatic panel); SGC in-house recombinant human kinases (DSF panel); Invitrogen (ALK1-6)
T9 sequence (O15530 1-556): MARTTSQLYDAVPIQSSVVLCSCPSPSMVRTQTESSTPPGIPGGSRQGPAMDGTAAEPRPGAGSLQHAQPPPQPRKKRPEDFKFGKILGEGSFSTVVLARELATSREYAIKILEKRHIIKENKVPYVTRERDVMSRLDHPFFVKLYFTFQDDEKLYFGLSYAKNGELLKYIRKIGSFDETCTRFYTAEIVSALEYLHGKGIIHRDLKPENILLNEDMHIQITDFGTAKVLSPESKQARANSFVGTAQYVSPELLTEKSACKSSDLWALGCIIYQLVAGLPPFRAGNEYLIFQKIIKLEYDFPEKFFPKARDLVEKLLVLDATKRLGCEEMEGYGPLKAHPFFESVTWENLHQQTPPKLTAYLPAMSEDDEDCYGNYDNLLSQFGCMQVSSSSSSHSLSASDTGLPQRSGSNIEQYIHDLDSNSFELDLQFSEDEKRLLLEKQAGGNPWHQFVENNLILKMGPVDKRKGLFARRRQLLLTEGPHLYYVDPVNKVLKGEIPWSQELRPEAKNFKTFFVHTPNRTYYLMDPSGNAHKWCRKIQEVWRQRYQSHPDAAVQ
Method in brief: as §1

[10] = target: T10, CLK2 (Homo sapiens, UniProt P49760)
T10 construct: purchased Nanosyn (enzymatic panel); SGC in-house recombinant human kinases (DSF panel); Invitrogen (ALK1-6)
T10 sequence (P49760 whole entry): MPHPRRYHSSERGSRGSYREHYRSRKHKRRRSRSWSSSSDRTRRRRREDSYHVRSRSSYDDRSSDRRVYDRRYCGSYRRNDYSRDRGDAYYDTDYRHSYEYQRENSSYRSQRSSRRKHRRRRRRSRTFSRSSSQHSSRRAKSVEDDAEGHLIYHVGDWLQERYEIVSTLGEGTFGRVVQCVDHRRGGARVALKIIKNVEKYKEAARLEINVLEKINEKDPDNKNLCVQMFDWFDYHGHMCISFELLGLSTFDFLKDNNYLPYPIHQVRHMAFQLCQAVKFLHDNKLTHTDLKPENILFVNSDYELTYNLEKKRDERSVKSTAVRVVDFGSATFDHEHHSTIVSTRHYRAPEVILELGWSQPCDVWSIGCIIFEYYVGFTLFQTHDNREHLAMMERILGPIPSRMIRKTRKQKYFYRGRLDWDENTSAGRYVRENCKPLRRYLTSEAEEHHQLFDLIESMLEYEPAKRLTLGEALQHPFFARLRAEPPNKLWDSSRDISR
Method in brief: as §1

[11] = target: T11, p38β (Homo sapiens, UniProt Q15759)
T11 construct: purchased Nanosyn (enzymatic panel); SGC in-house recombinant human kinases (DSF panel); Invitrogen (ALK1-6)
T11 sequence (Q15759 whole entry): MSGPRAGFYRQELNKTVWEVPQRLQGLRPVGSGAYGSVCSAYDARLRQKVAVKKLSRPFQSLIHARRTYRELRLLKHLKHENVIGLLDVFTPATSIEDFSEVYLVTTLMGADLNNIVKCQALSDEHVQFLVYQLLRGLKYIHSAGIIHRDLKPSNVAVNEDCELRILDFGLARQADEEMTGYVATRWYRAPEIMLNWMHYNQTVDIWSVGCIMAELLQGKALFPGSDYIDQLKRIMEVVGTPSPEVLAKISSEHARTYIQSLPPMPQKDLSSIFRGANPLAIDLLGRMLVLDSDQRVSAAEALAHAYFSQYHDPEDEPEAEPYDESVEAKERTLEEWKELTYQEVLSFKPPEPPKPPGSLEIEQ
Method in brief: as §1

[12] = target: T12, MAPKAPK3 (Homo sapiens, UniProt Q16644)
T12 construct: purchased Nanosyn (enzymatic panel); SGC in-house recombinant human kinases (DSF panel); Invitrogen (ALK1-6)
T12 sequence (Q16644 whole entry): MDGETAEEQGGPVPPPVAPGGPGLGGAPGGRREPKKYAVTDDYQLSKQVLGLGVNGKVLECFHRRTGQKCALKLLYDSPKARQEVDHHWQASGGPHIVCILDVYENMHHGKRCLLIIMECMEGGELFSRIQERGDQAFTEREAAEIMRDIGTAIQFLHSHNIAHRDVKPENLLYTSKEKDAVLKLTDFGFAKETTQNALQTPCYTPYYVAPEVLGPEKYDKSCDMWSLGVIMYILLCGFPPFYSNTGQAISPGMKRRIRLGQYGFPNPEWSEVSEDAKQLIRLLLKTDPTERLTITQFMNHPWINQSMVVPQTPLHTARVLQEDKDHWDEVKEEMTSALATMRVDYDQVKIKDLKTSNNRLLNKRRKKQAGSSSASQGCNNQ
Method in brief: as §1

Structure (SMILES)	inhibition at 0.1 µM [1]	inhibition at 1 µM [1]	inhibition at 0.1 µM [2]	inhibition at 1 µM [2]	inhibition at 0.1 µM [3]	inhibition at 1 µM [3]	inhibition at 0.1 µM [4]	inhibition at 1 µM [4]	inhibition at 0.1 µM [5]	inhibition at 1 µM [5]	inhibition at 0.1 µM [6]	inhibition at 1 µM [6]	inhibition at 0.1 µM [7]	inhibition at 1 µM [7]	inhibition at 0.1 µM [8]	inhibition at 1 µM [8]	inhibition at 0.1 µM [9]	inhibition at 1 µM [9]	inhibition at 0.1 µM [10]	inhibition at 1 µM [10]	further results
COc1cc(-c2cc(-c3cccc(O)c3)cnc2N)cc(OC)c1OC [K02288, 3-[6-amino-5-(3,4,5-trimethoxy-phenyl)-pyridin-3-yl]-phenol]	0%	6.1%	0%	0%	4.9%	34%	-1%	-1%	-2%	0.2%	-2%	-1%	6%	43%	-1%	0.8%	0%	0.5%	0%	0%	inhibition at 0.1 µM [11]: 0%; inhibition at 1 µM [11]: 9.7%; inhibition at 0.1 µM [12]: -1%; inhibition at 1 µM [12]: -2%
c1ccc2c(-c3cnn4cc(-c5ccc(N6CCNCC6)cc5)cnc34)ccnc2c1 [LDN-193189]	4.6%	15%	1.2%	4.1%	12%	50%	0.2%	1.2%	5%	16%	0.8%	1.6%	7.4%	34%	1.4%	1.5%	1.1%	1.9%	2.3%	35%	inhibition at 0.1 µM [11]: 0.4%; inhibition at 1 µM [11]: 1.5%; inhibition at 0.1 µM [12]: 1.6%; inhibition at 1 µM [12]: 0.5%

From article PMC3639963, “A New Class of Small Molecule Inhibitor of BMP Signaling” (PLoS ONE, 2013)
